Laboratory results taken from the supplement of paper PMC13380429.

Columns and labels:
Conditions in all cases: 72 h
Caco-2 [1] = assay: drug sensitivity score (DSS) for viability; higher = more toxic; extreme values may be limits of the assay
U2OS [2] = assay: as above
Vero E6 [3] = assay: as above
HepG2 [4] = assay: as above
Calu-3 [5] = assay: as above
Caco-2 [6] = assay: relative viability EC50 (midpoint between 100% and the lowest measured viability); higher = less toxic
U2OS [7] = assay: as above
Vero E6 [8] = assay: as above
HepG2 [9] = assay: as above
Calu-3 [10] = assay: as above
Caco-2 [11] = assay: cell viability relative to DMSO; higher = less toxic
U2OS [12] = assay: as above
Vero E6 [13] = assay: as above
HepG2 [14] = assay: as above
Calu-3 [15] = assay: as above

| Structure (SMILES) | drug sensitivity score (Caco-2 [1]) | drug sensitivity score (U2OS [2]) | drug sensitivity score (Vero E6 [3]) | drug sensitivity score (HepG2 [4]) | drug sensitivity score (Calu-3 [5]) | relative viability EC50 (Caco-2 [6]) [µM] | relative viability EC50 (U2OS [7]) [µM] | relative viability EC50 (Vero E6 [8]) [µM] | relative viability EC50 (HepG2 [9]) [µM] | relative viability EC50 (Calu-3 [10]) [µM] | cell viability (Caco-2 [11]; 1 nM) [%] | cell viability (Caco-2 [11]; 10 nM) [%] | cell viability (Caco-2 [11]; 100 nM) [%] | cell viability (Caco-2 [11]; 1000 nM) [%] | cell viability (Caco-2 [11]; 10000 nM) [%] | cell viability (U2OS [12]; 1 nM) [%] | cell viability (U2OS [12]; 10 nM) [%] | cell viability (U2OS [12]; 100 nM) [%] | cell viability (U2OS [12]; 1000 nM) [%] | cell viability (U2OS [12]; 10000 nM) [%] | cell viability (Vero E6 [13]; 1 nM) [%] | cell viability (Vero E6 [13]; 10 nM) [%] | cell viability (Vero E6 [13]; 100 nM) [%] | cell viability (Vero E6 [13]; 1000 nM) [%] | cell viability (Vero E6 [13]; 10000 nM) [%] | cell viability (HepG2 [14]; 1 nM) [%] | cell viability (HepG2 [14]; 10 nM) [%] | cell viability (HepG2 [14]; 100 nM) [%] | cell viability (HepG2 [14]; 1000 nM) [%] | cell viability (HepG2 [14]; 10000 nM) [%] | cell viability (Calu-3 [15]; 1 nM) [%] | cell viability (Calu-3 [15]; 10 nM) [%] | cell viability (Calu-3 [15]; 100 nM) [%] | cell viability (Calu-3 [15]; 1000 nM) [%] | cell viability (Calu-3 [15]; 10000 nM) [%] |
| --- | --- | --- | --- | --- | --- | --- | --- | --- | --- | --- | --- | --- | --- | --- | --- | --- | --- | --- | --- | --- | --- | --- | --- | --- | --- | --- | --- | --- | --- | --- | --- | --- | --- | --- | --- |
| Cn1c(=O)c2c(ncn2CCO)n(C)c1=O [etofylline] | 0 | 0 | 0 | 0 | 0 | > 10 | > 10 | > 10 | > 10 | > 10 | 103 | 98 | 90.5 | 102 | 97.6 | 102 | 97.4 | 97 | 98.8 | 98.4 | 104 | 98 | 103 | 103 | 103 | 101 | 110 | 88.8 | 96.6 | 102 | 97.8 | 99.6 | 97 | 98.2 | 102 |
| Cc1cnc(Nc2ccc(OCCN3CCCC3)cc2)nc1Nc1cccc(S(=O)(=O)NC(C)(C)C)c1 [fedratinib] | 8.1 | 7.8 | 6.4 | 8 | 4.7 | 1.61 | 2.05 | 2.71 | 1.32 | 3.04 | 101 | 97.1 | 99.3 | 79.6 | 11.9 | 104 | 97.4 | 99.2 | 86.2 | 0.8 | 96 | 104 | 104 | 94.2 | 0.3 | 120 | 100 | 101 | 74.2 | 22.2 | 107 | 102 | 100 | 98.5 | 18.3 |
| CC1(C)O[C@@H]2C[C@H]3[C@@H]4C[C@H](F)C5=CC(=O)C=C[C@]5(C)[C@H]4[C@@H](O)C[C@]3(C)[C@]2(C(=O)CO)O1 [flunisolide] | 1 | 0 | 0 | 0 | 0.2 | > 10 | > 10 | > 10 | > 10 | > 10 | 105 | 103 | 91.5 | 87.7 | 98.5 | 102 | 93.9 | 91.4 | 93.8 | 94.7 | 96.6 | 97.6 | 95.3 | 94.2 | 102 | 105 | 104 | 97.3 | 97.3 | 99.2 | 98.5 | 96.1 | 101 | 94.5 | 88.5 |
| c1ccc(OCc2ccc(CCCN3CCOCC3)cc2)cc1 [fomocaine] | 0 | 0 | 0 | 0 | 0 | > 10 | > 10 | > 10 | > 10 | > 10 | 87.8 | 92.8 | 100 | 93.4 | 97.1 | 93.7 | 94.6 | 98.5 | 100 | 101 | 94.9 | 95.7 | 93.1 | 100 | 100 | 96.7 | 106 | 97.1 | 101 | 90.4 | 110 | 101 | 108 | 96.3 | 113 |
| O=C(O)P(=O)(O)O [foscarnet] | 0 | 0 | 0 | 0 | 0 | > 10 | > 10 | > 10 | > 10 | > 10 | 97.4 | 103 | 97.5 | 102 | 102 | 104 | 100 | 99.2 | 99.1 | 102 | 106 | 104 | 98.3 | 99.5 | 101 | 102 | 105 | 99.9 | 104 | 96.7 | 110 | 105 | 106 | 91.9 | 93.4 |
| CCC(=O)O[C@@H](O[P@@](=O)(CCCCc1ccccc1)CC(=O)N1C[C@H](C2CCCCC2)C[C@H]1C(=O)O)C(C)C [fosinopril] | 0 | 0 | 0 | 0 | 0 | > 10 | > 10 | > 10 | > 10 | > 10 | 100 | 95.3 | 99.3 | 92.7 | 103 | 103 | 97.2 | 105 | 97.7 | 104 | 99.8 | 97.8 | 92.7 | 95.4 | 99.6 | 103 | 92.7 | 93.7 | 103 | 97.9 | 98.3 | 89.7 | 103 | 85.7 | 100 |
| COc1ccc2c3c1O[C@H]1C[C@@H](O)C=C[C@@]31CCN(C)C2 [galantamine] | 0 | 0 | 0 | 0 | 0 | > 10 | > 10 | > 10 | > 10 | > 10 | 90.2 | 104 | 106 | 112 | 108 | 101 | 95.4 | 96.5 | 104 | 104 | 102 | 99.1 | 103 | 90.8 | 93.6 | 84.5 | 105 | 85.8 | 102 | 100 | 96.9 | 91.2 | 103 | 104 | 99.9 |
| CN1C2CCCC1CC(NC(=O)c1nn(C)c3ccccc13)C2 (stereo not given) [granisetron] | 0 | 0 | 0 | 0 | 0 | > 10 | > 10 | > 10 | > 10 | > 10 | 96.7 | 99.1 | 102 | 105 | 107 | 105 | 95.8 | 99.9 | 97.8 | 98.1 | 111 | 102 | 99.9 | 102 | 96.2 | 109 | 98.1 | 82.7 | 95.1 | 92.7 | 108 | 106 | 110 | 92.4 | 105 |
| C=C[C@@H]1C[C@]1(NC(=O)[C@@H]1C[C@@H]2CN1C(=O)[C@H](C(C)(C)C)NC(=O)O[C@@H]1C[C@H]1CCCCCc1nc3ccc(OC)cc3nc1O2)C(=O)NS(=O)(=O)C1CC1 [grazoprevir] | 1.2 | 0 | 0 | 0 | 0 | > 10 | > 10 | > 10 | > 10 | > 10 | 101 | 98.5 | 105 | 93.9 | 80.8 | 93 | 100 | 96 | 91.6 | 90.4 | 96.3 | 98.3 | 97.1 | 95.3 | 103 | 106 | 92.5 | 99.6 | 103 | 106 | 103 | 107 | 105 | 94.7 | 103 |
| CCC(=O)O[C@]1(C(=O)CCl)[C@@H](C)C[C@H]2[C@@H]3C[C@H](F)C4=CC(=O)C=C[C@]4(C)[C@@]3(F)[C@@H](O)C[C@@]21C [halobetasol-propionate] | 0 | 0 | 0 | 0 | 0 | > 10 | > 10 | > 10 | > 10 | > 10 | 105 | 105 | 104 | 108 | 99.4 | 96.7 | 102 | 95.8 | 101 | 93.6 | 99.9 | 101 | 104 | 102 | 106 | 106 | 93.9 | 102 | 98.1 | 111 | 81.1 | 82.1 | 77.5 | 93.1 | 80 |
| CCN(CC)CCNc1ccc(CO)c2sc3ccccc3c(=O)c12 [hycanthone] | 2.7 | 0.1 | 5.6 | 9.1 | 0.2 | 3.5 | > 10 | 1.87 | 1.55 | > 10 | 90 | 106 | 111 | 104 | 44.2 | 100 | 101 | 96.2 | 104 | 85.2 | 104 | 101 | 103 | 88.5 | 32.8 | 101 | 96.5 | 84.2 | 70 | 0.7 | 101 | 110 | 101 | 102 | 84.8 |
| CCCC(=O)O[C@]1(C(=O)CO)CC[C@H]2[C@@H]3CCC4=CC(=O)CC[C@]4(C)[C@H]3[C@@H](O)C[C@@]21C [hydrocortisone-butyrate] | 0 | 0 | 0 | 0 | 0.1 | > 10 | > 10 | > 10 | > 10 | > 10 | 103 | 95.2 | 98.4 | 104 | 102 | 97 | 95.8 | 97.1 | 95.3 | 95.6 | 95.5 | 99 | 91.5 | 102 | 105 | 95.1 | 102 | 93.8 | 102 | 101 | 109 | 101 | 102 | 95.8 | 89.1 |
| CC(N)Cc1ccc(O)cc1 (stereo not given) [hydroxyamphetamine] | 0 | 0 | 0 | 0 | 0 | > 10 | > 10 | > 10 | > 10 | > 10 | 107 | 92.8 | 94.2 | 98.7 | 99.5 | 98.6 | 101 | 96.2 | 102 | 94.5 | 99.9 | 102 | 99.4 | 95.1 | 104 | 102 | 103 | 93.4 | 93.7 | 96 | 92.5 | 94.4 | 98.7 | 100 | 107 |
